Laboratory results taken from patent publication US5422359A, “α-aminoketone derivatives” (Mitsubishi Kasei Corporation, priority 1992, dated 1995).

Biological target: T1, m-calpain (Rattus norvegicus, UniProt Q07009)
T1 construct: m-calpain was purified from a brain of rat; from tissue; host or cells: rat brain
T1 sequence (Q07009 20-700 limits assumed): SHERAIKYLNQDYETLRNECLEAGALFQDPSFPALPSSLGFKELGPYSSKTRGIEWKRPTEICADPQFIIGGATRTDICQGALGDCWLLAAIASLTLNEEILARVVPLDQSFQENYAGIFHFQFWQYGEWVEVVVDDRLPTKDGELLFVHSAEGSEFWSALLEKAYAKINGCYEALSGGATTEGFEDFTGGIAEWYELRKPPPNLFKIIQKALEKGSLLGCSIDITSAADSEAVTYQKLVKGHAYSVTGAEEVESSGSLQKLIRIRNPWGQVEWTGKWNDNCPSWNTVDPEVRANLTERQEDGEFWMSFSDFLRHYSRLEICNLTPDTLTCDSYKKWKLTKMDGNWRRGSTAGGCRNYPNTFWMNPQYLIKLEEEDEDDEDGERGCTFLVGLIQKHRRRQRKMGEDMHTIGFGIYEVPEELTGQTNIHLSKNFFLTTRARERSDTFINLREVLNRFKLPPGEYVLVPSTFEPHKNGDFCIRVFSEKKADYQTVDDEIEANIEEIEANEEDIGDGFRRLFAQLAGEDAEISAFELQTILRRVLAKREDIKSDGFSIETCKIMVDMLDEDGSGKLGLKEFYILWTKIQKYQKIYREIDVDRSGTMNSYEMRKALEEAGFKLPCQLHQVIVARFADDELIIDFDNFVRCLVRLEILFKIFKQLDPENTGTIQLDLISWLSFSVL
T1 sequence (Q64537 1-270 partner): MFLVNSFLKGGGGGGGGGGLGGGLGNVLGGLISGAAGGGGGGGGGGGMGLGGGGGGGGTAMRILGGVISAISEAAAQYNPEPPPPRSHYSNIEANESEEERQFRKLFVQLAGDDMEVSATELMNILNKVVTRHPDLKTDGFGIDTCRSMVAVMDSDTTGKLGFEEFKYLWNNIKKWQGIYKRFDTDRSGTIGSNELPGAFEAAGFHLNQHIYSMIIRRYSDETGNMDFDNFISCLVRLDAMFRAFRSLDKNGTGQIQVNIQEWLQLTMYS
Test: Measurement of inhibitory activity against calpain
Assay type: biochemical
Conditions: m-calpain purified from a brain of rat; read-out: 50% inhibitory concentration (IC50)
Experimental: Measurement of Inhibitory Activity against Calpain
Through the known method disclosed in Journal of Biological Chemistry, vol. 259, p.3210, (1984), m-calpain was purified from a brain of rat. The inhibitory activity against it was measured and determined according to the method disclosed in Journal of Biological Chemistry, vol. 259, p.12489 […].

IC50: 10.1 µM
SMILES: CCCC[C@H](NC(=O)[C@H](CC(C)C)NC(=O)OCc1ccccc1)C(=O)CCCc1ccco1 [Example 5]
